Reference: patent US7767659B2, “Synthesis of naturally occurring ecteinascidins and related compounds” (Pharma Mar, S.A., priority 2002, dated 2010)

What was measured:
LoVo-Dox = assay: Inhibition of cells growth by colorimetric assay (SRB); details: Homo sapiens, 48 h; for GI50: read-out: GI50 LOVO-DOX; for CC50: read-out: LC50 LOVO-DOX; for IC (TGI): read-out: TGI LOVO-DOX
Method in brief: (§1)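 Colorimetric SRB read (490 nm) on triplicate wells after 48 h at 37 °C, 5% CO2. Dose range 10 to 10^−8 μg/ml; 5×10^3 cells/well pre-attached 18 h.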

SK-BR-3 = assay: as above; details: Homo sapiens, SK-BR-3, 48 h; for GI50: read-out: GI50 SK-BR3; for CC50: read-out: LC50 SK-BR3; for IC (TGI): read-out: TGI SK-BR3
Method in brief: as §1

HeLa-APL = assay: as above; details: Homo sapiens, 48 h; for GI50: read-out: GI50 HELA-APL; for CC50: read-out: LC50 HELA-APL; for IC (TGI): read-out: TGI HELA-APL
Method in brief: as §1

HeLa = assay: as above; details: Homo sapiens, HeLa, 48 h; for GI50: read-out: GI50 HELA; for CC50: read-out: LC50 HELA; for IC (TGI): read-out: TGI HELA
Method in brief: as §1

IGROV-ET = assay: as above; details: Homo sapiens, 48 h; for GI50: read-out: GI50 IGROV-ET; for CC50: read-out: LC50 IGROV-ET; for IC (TGI): read-out: TGI IGROV-ET
Method in brief: as §1

K-562 = assay: as above; details: Homo sapiens, K562, 48 h; for GI50: read-out: GI50 K562; for CC50: read-out: LC50 K562; for IC (TGI): read-out: TGI K562
Method in brief: as §1

LNCaP = assay: as above; details: Homo sapiens, LNCaP, 48 h; for GI50: read-out: GI50 LNCAP; for CC50: read-out: LC50 LNCAP; for IC (TGI): read-out: TGI LNCAP
Method in brief: as §1

DU-145 = assay: as above; details: Homo sapiens, DU-145, 48 h; for GI50: read-out: GI50 DU145; for CC50: read-out: LC50 DU145; for IC (TGI): read-out: TGI DU145
Method in brief: as §1

PANC-1 = assay: as above; details: Homo sapiens, PANC-1, 48 h; for GI50: read-out: GI50 PANC-1; for CC50: read-out: LC50 PANC-1; for IC (TGI): read-out: TGI PANC-1
Method in brief: as §1

IGROV-1 = assay: as above; details: Homo sapiens, IGROV-1, 48 h; for GI50: read-out: GI50 IGROV; for CC50: read-out: LC50 IGROV; for IC (TGI): read-out: TGI IGROV
Method in brief: as §1

SK-MEL-28 = assay: as above; details: Homo sapiens, SK-MEL-28, 48 h; for GI50: read-out: GI50 MEL-28; for CC50: read-out: LC50 MEL-28; for IC (TGI): read-out: TGI MEL-28
Method in brief: as §1

A-549 = assay: cells; details: Homo sapiens, A549, 48 h; for GI50: read-out: GI50 A549; for CC50: read-out: LC50 A549; for IC (TGI): read-out: TGI A549
Method in brief: as §1

LoVo = assay: cells; details: Homo sapiens, LoVo, 48 h; for GI50: read-out: GI50 LOVO; for CC50: read-out: LC50 LOVO; for IC (TGI): read-out: TGI LOVO
Method in brief: as §1

HT-29 = assay: cells; details: Homo sapiens, HT-29, 48 h; for GI50: read-out: GI50 HT29; for CC50: read-out: LC50 HT29; for IC (TGI): read-out: TGI HT29
Method in brief: as §1

## C=CCOc1c(C)c2c(c3c1CC1[C@H]4c5c(cc(C)c(OC)c5O)C[C@@H]([C@H](C#N)N1[C@H]3CN)N4C)OCO2 (stereo partly drawn) [compound 1]
LoVo-Dox
  GI50: 6170 nM
  CC50: 19200 nM
  IC (TGI): 19200 nM
SK-BR-3
  GI50: 1010 nM
  CC50: 19200 nM
  IC (TGI): 3960 nM
HeLa-APL
  GI50: 717 nM
  CC50: 7510 nM
  IC (TGI): 1630 nM
HeLa
  GI50: 1080 nM
  CC50: 18100 nM
  IC (TGI): 2840 nM
IGROV-ET
  GI50: 970 nM
  CC50: 19200 nM
  IC (TGI): 19200 nM
K-562
  GI50: 361 nM
  CC50: 1770 nM
  IC (TGI): 799 nM
LNCaP
  GI50: 434 nM
  CC50: 1290 nM
  IC (TGI): 747 nM
DU-145
  GI50: 567 nM
  CC50: 1920 nM
  IC (TGI): 1070 nM
PANC-1
  GI50: 887 nM
  CC50: 19200 nM
  IC (TGI): 4360 nM
IGROV-1
  GI50: 901 nM
  CC50: 19200 nM
  IC (TGI): 2590 nM
SK-MEL-28
  GI50: 561 nM
  CC50: 6070 nM
  IC (TGI): 1150 nM
A-549
  GI50: 1530 nM
  CC50: 19200 nM
  IC (TGI): 6070 nM
LoVo
  GI50: 932 nM
  CC50: 19200 nM
  IC (TGI): 4000 nM
HT-29
  GI50: 1110 nM
  CC50: 19200 nM
  IC (TGI): 19200 nM

## C=CCOc1c(C)c2c(c3c1CC1[C@H]4c5c(cc(C)c(OC)c5O)C[C@@H]([C@H](C#N)N1[C@H]3CO)N4C)OCO2 (stereo partly drawn) [compound 2]
LoVo-Dox
  GI50: 924 nM
  CC50: 19200 nM
  IC (TGI): 19200 nM
SK-BR-3
  GI50: 778 nM
  CC50: 19200 nM
  IC (TGI): 1750 nM
HeLa-APL
  GI50: 479 nM
  CC50: 1490 nM
  IC (TGI): 844 nM
HeLa
  GI50: 763 nM
  CC50: 9800 nM
  IC (TGI): 1450 nM
IGROV-ET
  GI50: 1060 nM
  CC50: 19200 nM
  IC (TGI): 19200 nM
K-562
  GI50: 516 nM
  CC50: 4790 nM
  IC (TGI): 1220 nM
LNCaP
  GI50: 592 nM
  CC50: 2760 nM
  IC (TGI): 1110 nM
DU-145
  GI50: 897 nM
  CC50: 19200 nM
  IC (TGI): 3130 nM
PANC-1
  GI50: 890 nM
  CC50: 19200 nM
  IC (TGI): 3260 nM
IGROV-1
  GI50: 926 nM
  CC50: 18200 nM
  IC (TGI): 2260 nM
SK-MEL-28
  GI50: 598 nM
  CC50: 5310 nM
  IC (TGI): 1270 nM
A-549
  GI50: 633 nM
  CC50: 9110 nM
  IC (TGI): 1390 nM
LoVo
  GI50: 533 nM
  CC50: 1920 nM
  IC (TGI): 1070 nM
HT-29
  GI50: 1060 nM
  CC50: 19200 nM
  IC (TGI): 14200 nM

## C=CCN1[C@@H]2c3c(cc(C)c(OC)c3O)C[C@H]1[C@H](C#N)N1C2[C@@H]2SCC(N)C(=O)OC[C@H]1c1c3c(c(C)c(OC(C)=O)c12)OCO3 (stereo partly drawn) [compound 12]
LoVo-Dox
  GI50: 504 nM
  CC50: 12200 nM
  IC (TGI): 971 nM
SK-BR-3
  GI50: 256 nM
  CC50: 979 nM
  IC (TGI): 501 nM
HeLa-APL
  GI50: 244 nM
  CC50: 914 nM
  IC (TGI): 472 nM
HeLa
  GI50: 344 nM
  CC50: 1120 nM
  IC (TGI): 621 nM
IGROV-ET
  GI50: 635 nM
  CC50: 3820 nM
  IC (TGI): 1070 nM
K-562
  GI50: 110 nM
  CC50: 15400 nM
  IC (TGI): 2510 nM
LNCaP
  GI50: 82.5 nM
  CC50: 711 nM
  IC (TGI): 251 nM
DU-145
  GI50: 535 nM
  CC50: 4220 nM
  IC (TGI): 1020 nM
PANC-1
  GI50: 472 nM
  CC50: 4070 nM
  IC (TGI): 953 nM
IGROV-1
  GI50: 225 nM
  CC50: 1050 nM
  IC (TGI): 486 nM
SK-MEL-28
  GI50: 350 nM
  CC50: 1030 nM
  IC (TGI): 603 nM
A-549
  GI50: 338 nM
  CC50: 1160 nM
  IC (TGI): 624 nM
LoVo
  GI50: 399 nM
  CC50: 3210 nM
  IC (TGI): 808 nM
HT-29
  GI50: 503 nM
  CC50: 15400 nM
  IC (TGI): 1270 nM

## COc1c(C)cc2c(c1O)[C@@H]1C3[C@@H]4SC[C@]5(NCCc6c5[nH]c5ccccc65)C(=O)OC[C@@H](c5c6c(c(C)c(OC(C)=O)c54)OCO6)N3[C@@H](C#N)[C@H](C2)N1C (stereo partly drawn) [compound 22]
LoVo-Dox
  GI50: 87.4 nM
  CC50: 13100 nM
  IC (TGI): 524 nM
SK-BR-3
  GI50: 5.77 nM
  CC50: 120 nM
  IC (TGI): 22.3 nM
HeLa-APL
  GI50: 21.1 nM
  CC50: 93.5 nM
  IC (TGI): 44.4 nM
HeLa
  GI50: 33.2 nM
  CC50: 158 nM
  IC (TGI): 56.6 nM
IGROV-ET
  GI50: 52.2 nM
  CC50: 131 nM
  IC (TGI): 104 nM
K-562
  GI50: 5.92 nM
  CC50: 840 nM
  IC (TGI): 42.4 nM
LNCaP
  GI50: 6.15 nM
  CC50: 55 nM
  IC (TGI): 21.1 nM
DU-145
  GI50: 29.6 nM
  CC50: 1310 nM
  IC (TGI): 86.8 nM
PANC-1
  GI50: 29.6 nM
  CC50: 854 nM
  IC (TGI): 73.8 nM
IGROV-1
  GI50: 19.1 nM
  CC50: 104 nM
  IC (TGI): 44.6 nM
SK-MEL-28
  GI50: 30.2 nM
  CC50: 102 nM
  IC (TGI): 55.5 nM
A-549
  GI50: 26.7 nM
  CC50: 131 nM
  IC (TGI): 59 nM
LoVo
  GI50: 20.3 nM
  CC50: 96.5 nM
  IC (TGI): 41.1 nM
HT-29
  GI50: 29.7 nM
  CC50: 13100 nM
  IC (TGI): 82.5 nM

## COC1=C(C)C(=O)C2=C(C1=O)[C@@H]1C3[C@@H]4SC[C@]5(NCCc6c5[nH]c5ccccc65)C(=O)OC[C@@H](c5c6c(c(C)c(OC(C)=O)c54)OCO6)N3[C@@H](C#N)[C@H](C2)N1C (stereo partly drawn) [compound 23]
LoVo-Dox
  GI50: 661 nM
  CC50: 12900 nM
  IC (TGI): 7460 nM
SK-BR-3
  GI50: 13.1 nM
  CC50: 645 nM
  IC (TGI): 87.7 nM
HeLa-APL
  GI50: 35.6 nM
  CC50: 102 nM
  IC (TGI): 60.3 nM
HeLa
  GI50: 38.2 nM
  CC50: 114 nM
  IC (TGI): 66 nM
IGROV-ET
  GI50: 456 nM
  CC50: 1260 nM
  IC (TGI): 760 nM
K-562
  GI50: 20.3 nM
  CC50: 1400 nM
  IC (TGI): 73.3 nM
LNCaP
  GI50: 153 nM
  CC50: 657 nM
  IC (TGI): 318 nM
DU-145
  GI50: 58.5 nM
  CC50: 4450 nM
  IC (TGI): 143 nM
PANC-1
  GI50: 509 nM
  CC50: 12900 nM
  IC (TGI): 1260 nM
IGROV-1
  GI50: 350 nM
  CC50: 1130 nM
  IC (TGI): 627 nM
SK-MEL-28
  GI50: 247 nM
  CC50: 857 nM
  IC (TGI): 460 nM
A-549
  GI50: 60.6 nM
  CC50: 785 nM
  IC (TGI): 211 nM
LoVo
  GI50: 276 nM
  CC50: 983 nM
  IC (TGI): 522 nM
HT-29
  GI50: 51.2 nM
  CC50: 12900 nM
  IC (TGI): 215 nM
